Reference: patent publication US20240018470A1, “METHOD OF MANIPULATING PLURIPOTENCY IN CELLS” (YALE UNIVERSITY, priority 2022, published 2024)
No end group written: not given here.

Key:
[1] = tested on: hESCs; test: hESC pluripotency marker immunofluorescence; assay type: cell-based, human
Procedure: hESCs were grown in mTeSR1 ([…] Technologies) in tissue culture dishes coated with Matrigel (Corning; 1:200 in DMEM/F12) and kept at 37° C., 5% CO2. The cell lines used were ESI017 (ESIBIO) and H9.
(§1) Cells were dissociated with accutase and seeded onto 8 well imaging slides (ibidi 80826) at a density of 4-6×10^4/cm^2. Cells were seeded and maintained in Rock-inhibitor Y27672 (MCE; 10 μM) to increase survival and the uniformity of response. Treatments with 1 mM BaCl2 or 10 or 25 nM Ergtoxin or 100 nM rapamycin were initiated 4 hours after seeding. Differentiation was initiated 24 hours after seeding where indicated. To initiate differentiation, the media was replenished with/without BaCl2 or Ergtoxin and treated with the indicated growth factors or small molecules. Cells were incubated for the indicated times without media change before fixation.
Cells were fixed for 30 min in 4% paraformaldehyde, rinsed twice with DPBS (without Ca^2+ and Mg^2+, denoted DPBS^−/−), and blocked for 30 min at room temperature. The blocking solution contained 3% donkey serum and 0.1% Triton X-100 in 1×DPBS^−/−. After blocking, the cells were incubated with primary antibodies at room temperature for 2 hours. Antibodies and concentrations are listed below. Cells were washed three times with DPBST (1×DPBS^−/− with Tween 20) and incubated with secondary antibodies (AlexaFluor 488 A21206, AlexaFluor 555 A31570 and A21432, and AlexaFluor 647 A31571, Thermo Fisher; 1:500) and DAPI for 30 min at room temperature. After secondary antibody incubation, samples were washed in DPBST and then DPBS at room temperature.
(§2) Images were acquired using a 20×, NA 0.75 objective on an Olympus IX83 inverted epifluorescence microscope or an Olympus/Andor spinning disk confocal microscope. Cell segmentation was performed using ilastik software. This segmentation was cleaned (to remove debris and to separate merged cells) and mean nuclear protein intensities as well as standard errors were quantified using a custom MATLAB code. Nuclear intensities were normalized by DAPI to correct for intensity variation due to optics. […]

[2] = tested on: Xenopus embryos; test: Gastrulation scoring (incomplete blastopore closure) in treated or kcnh6-depleted embryos; assay type: in vivo, Xenopus tropicalis; settings: blastula/gastrula embryos treated stage 8 to stage 12, 50 nM
Procedure: All injections of Xenopus embryos were performed at the one-cell stage using a fine glass needle and Picospritzer system. A kcnh6 translation blocking (kcnh6 MO, 5′-[…]-3′, SEQ ID NO:1) and a scrambled morpholino oligonucleotide were obtained from Gene Tools LLC and injected at 10 ng to deplete kcnh6 or as a control, respectively. CRISPR sgRNAs for kcnh6 targeted either exon 3 or exon 4 based on the v7.1 gene model of the X. tropicalis genome (CRex3: 5′-[…]-3′, SEQ ID NO:2 and CRex4: 5′-[…]-3′, SEQ ID NO:3). CRISPR sgRNAs for cacna1c (5′-[…]-3′, SEQ ID NO:4) and cacna1g (5′-[…]-3′, SEQ ID NO:5) were designed from the v7.1 model of the Xenopus tropicalis genome. For F0 CRISPR knockdown, embryos were injected with 1.5 ng Cas9 Protein (PNA-Bio) and 400 pg of targeting sgRNA and raised to desired stages. […] Full length human KCNH6 (NM 030779.3; cloned in pCS107), GCaMP6 (subcloned in pCSDest) and mCherry cDNAs (Addgene #34935; in pCS2+), were used to generate capped mRNAs in vitro by first linearizing with appropriate restriction enzymes and then transcribing with the mMessage machine kit (Ambion). mRNAs were injected at 3 pg (human KCNH6), 150 pg (GCaMP6) and 150 pg (mCherry) per embryo. Embryos were raised at 21° C. to allow time for sufficient expression levels at blastula/gastrula stages.
(§3) Normal embryonic medium is 1/9× modified Ringer's (MR) containing 11 mM NaCl, 0.2 mM KCl, 0.2 mM CaCl2), 0.1 mM Mg2Cl and 0.55 mM HEPES. To allow Ergtoxin to penetrate the embryos, the present study manually removed the vitelline envelope of stage 8 embryos and incubated embryos in 1/9×MR containing 50 nM Ergtoxin (Alomone STE-450) until stage 12. Embryos were then transferred back into 1/9×MR lacking Ergtoxin to develop until stage 45 in order to score organ situs. Barium chloride was applied into the medium at 20 mM and embryos were thoroughly rinsed in 1/9×MR after each incubation period for further development in Ba2+-free medium. For extracellular K^+ manipulations, the KCl concentration in 1/9×MR was modified from 0.2 mM (normal) to 20 mM (high) or 0 mM (low). The ionophore valinomycin (ACROS) and L-type VGCC blocker Nifedipine (ACROS) were diluted in DMSO as stock solutions and applied to embryos in 1/9×MR at 2 nM and 10 μM respectively. Treatments performed during gastrulation were applied from stage 8 through stage 12, and embryos were then rinsed thoroughly and returned into 1/9×MR. For rapamycin, the present study created a standard stock solution of 50 mg/ml in DMSO. The stock solution was diluted 1:2500 in the appropriate embryonic media (final 20 μg/ml). Embryos were treated at stage 7 and then fixed at stage 11 for in situ hybridization.
(§4) In experiments where embryos were evaluated for phenotypes and scored (gastrulation, left-right patterning, in situ hybridizations) the present study carried out three to five biological replicates and Fisher's exact test to evaluate statistical significance. The animal cap experiment was performed twice with a total score of four to eight animal caps per experiment. For the calcium transient analyses, data was collected from three to five embryos in each experiment in three independent experiments, and statistical analyses on GCaMP/mCherry fluorescence intensity as well as Ca^2+ transient area were performed using student's t-test. For whole cell electrophysiological recordings, three to five embryos (two cells each) were examined for their membrane potential and statistical significance was tested by student's t-test. Graphs were designed using GraphPad Prism software. Models were created with BioRender.com.

[3] = tested on: hESCs; test: hESC BMP4-induced differentiation, pluripotency marker immunofluorescence; assay type: cell-based, human; settings: BMP4 50 ng/ml, at 12 hours; similar trend in NANOG
Procedure: as §1
Cells were fixed for 30 min in 4% paraformaldehyde, rinsed twice with DPBS (without Ca^2+ and Mg^2+, denoted DPBS^−/−), and blocked for 30 min at room temperature. The blocking solution contained 3% donkey serum and 0.1% Triton X-100 in 1×DPBS^−/−. After blocking, the cells were incubated with primary antibodies at room temperature for 2 hours. Antibodies and concentrations are listed below. […]
as §2, with “Cell segmentation was performed using ilastik software.” left out, “code.” for “code. Nuclear intensities were normalized by DAPI to correct for intensity variation due to optics.”

[4] = tested on: hESCs; test: hESC pluripotency marker qPCR; assay type: cell-based, human; settings: 25 nM; OCT4 and SOX2 by day 2, all three genes on day 5
Procedure: hESCs were grown in mTeSR1 (STEMCELL Technologies) in tissue culture dishes coated with Matrigel (Corning; 1:200 in DMEM/F12) and kept at 37° C., 5% CO2. The cell lines used were ESI017 (ESIBIO) and H9. Cells were routinely passaged using dispase (STEMCELL Technologies) and tested for mycoplasma contamination and found negative. For rapamycin experiments, cells were grown in MEF-conditioned HUESM media supplemented with 20 ng/ml bFGF with or without 100 nM rapamycin, which the present study found to increase the survival of rapamycin treated cells compared to cells grown in mTeSR1.
For qPCR, hESCs were grown with or without ErgToxin (25 nM) for the indicated times. RNA collection and DNase treatment were performed using the RNAqueous®-Micro Total RNA Isolation Kit (AM1931) and cDNA was synthesized with the SuperScript Vilo cDNA Synthesis Kit (Fisher Scientific 11754-050). qPCR measurements were collected using SYBR Green reagent (LifeTech-4367659) on a Step OnePlus instrument (Applied Biosciences). Data were normalized using the housekeeping gene GAPDH. Primers for qPCR were: OCT4: 5′-[…]-3′ (SEQ ID NO:12), 5′-[…]-3′ (SEQ ID NO:13), SOX2: 5′-[…]-3′ (SEQ ID NO:14), 5′-[…]-3′ (SEQ ID NO:15), NANOG: 5′-[…]-3′ (SEQ ID NO:16), 5′-[…]-3′ (SEQ ID NO:17), GAPDH: 5′-[…]-3′ (SEQ ID NO:18), 5′-[…]-3′ (SEQ ID NO:19).

[5] = tested on: Xenopus embryos; test: Organ situs (left-right patterning) scoring in stage 45 tadpoles; assay type: in vivo, Xenopus tropicalis; settings: blastula/gastrula embryos treated stage 8 to stage 12, 50 nM
Procedure: Stage 45 Xenopus embryos were paralyzed with benzocaine or tricaine and scored with a light stereomicroscope. Cardiac looping was determined by position of the outflow tract; D-loop: rightward, L-loop: leftward; A-loop: midline. Normal intestinal looping was scored as counter-clockwise rotation of the gut, while abnormal intestinal looping was scored as completely inverse gut rotation (clockwise) or complete lack of looping (un-looped). While a completely inverted gut rotation is clearly an abnormality of LR patterning, an unlooped gut is less clear so the present study only considered an unlooped gut as abnormal situs when combined with abnormal placement (left-sided or midline) of the gall bladder. To quantify total abnormal organ situs, each tadpole was counted only once, regardless of whether multiple organs were affected.
as §3, §4

“Ergtoxin: a scorpion peptide that specifically acts as a pore blocker of the KCNH channel family (Alomone STE-450) (DRDSCVDKSRCAKYGYYQECQDCCKNAGHNGGTCMFFKCKCA; ends and bridges not checked; cysteine pairing not given here; UniProt Q86QT3 21-62, looked up)” was tested, and the “effect on pluripotency markers in the presence of rapamycin” value ([1]; 25 nM Ergtoxin with 100 nM rapamycin) was “no effect”, the “pluripotency markers OCT4 and SOX2” value ([1]; hESCs grown for two days, 25 nM Ergtoxin or 1 mM Barium, immunostaining and qPCR) was “modest but significant elevation” and the gastrulation defects [2] was “identical gastrulation and LR defects”. The “downregulation of pluripotency markers such as SOX2” value [3] was “significant delay”, the “OCT4, SOX2 and NANOG transcript level” value [4] was “upregulation of these genes at the transcript level” and the LR defects [5] was “identical gastrulation and LR defects”.
